ChEMBL document CHEMBL3286227, “Guanidinium-based derivatives: searching for new kinase inhibitors” (Eur J Med Chem, 2014)

What was measured:
Type in all cases: functional
[1] = tested on: HL-60; test: Cell cycle arrest in human HL60 cells assessed as accumulation at G0/G1 phase at 10 uM after 72 hrs by propidium iodide staining-based flow cytometry (reference value: 65.7 +/- 0.1%)
[2] = tested on: HL-60; test: Cell cycle arrest in human HL60 cells assessed as accumulation at S phase at 1 uM after 48 hrs by propidium iodide staining-based flow cytometry (reference value: 21.5 +/- 1.0%)
[3] = tested on: HL-60; test: Cell cycle arrest in human HL60 cells assessed as accumulation at S phase at 10 uM after 72 hrs by propidium iodide staining-based flow cytometry (reference value: 16.4 +/- 0.8%)
[4] = tested on: HL-60; test: Cell cycle arrest in human HL60 cells assessed as accumulation at G2/M phase at 25 uM after 48 hrs by propidium iodide staining-based flow cytometry (reference value: 18.4 +/- 1.3%)
[5] = tested on: HL-60; test: Cell cycle arrest in human HL60 cells assessed as accumulation at G2/M phase at 1 uM after 72 hrs by propidium iodide staining-based flow cytometry (reference value: 14.8 +/- 0.7%)
[6] = tested on: HL-60; test: Cell cycle arrest in human HL60 cells assessed as accumulation at G2/M phase at 25 uM after 72 hrs by propidium iodide staining-based flow cytometry (reference value: 14.8 +/- 0.7%)
[7] = tested on: HL-60; test: Cell cycle arrest in human HL60 cells assessed as accumulation at Gn phase at 10 uM after 48 hrs by propidium iodide staining-based flow cytometry (reference value: 2.49 +/- 0.4%)
[8] = tested on: HL-60; test: Cell cycle arrest in human HL60 cells assessed as accumulation at Gn phase at 10 uM after 72 hrs by propidium iodide staining-based flow cytometry (reference value: 2.49 +/- 0.3%)
[9] = tested on: HL-60; test: Cell cycle arrest in human HL60 cells assessed as accumulation at pre-G1 phase at 1 uM after 48 hrs by propidium iodide staining-based flow cytometry (reference value: 0.17%)
[10] = tested on: HL-60; test: Cell cycle arrest in human HL60 cells assessed as accumulation at pre-G1 phase at 10 uM after 48 hrs by propidium iodide staining-based flow cytometry (reference value: 0.17%)
[11] = tested on: HL-60; test: Cell cycle arrest in human HL60 cells assessed as accumulation at pre-G1 phase at 25 uM after 72 hrs by propidium iodide staining-based flow cytometry (reference value: 0.14%)
[12] = tested on: HL-60; test: Cell cycle arrest in human HL60 cells assessed as accumulation at G0/G1 phase at 1 uM after 48 hrs by propidium iodide staining-based flow cytometry (reference value: 57.0 +/- 1.0%)

Q: `Cl.N=C(N)Nc1ccc(Oc2cccc(NC(=N)Nc3ccc(Cl)c(C(F)(F)F)c3)c2)cc1` was tested. Which Activity [1] did it give?
A: 61.3%

Q: What about the Activity [2] of the same compound?
A: 20.6%

Q: And the Activity [3]?
A: 14.1%

Q: And the Activity [4]?
A: 20.2%

Q: And the Activity [5]?
A: 16.7%

Q: What about the Activity [6] of the same compound?
A: 12.9%

Q: And the Activity [7]?
A: 2.17%

Q: What about the Activity [8] of the same compound?
A: 3.36%

Q: And the Activity [9]?
A: 0.13%

Q: What about the Activity [10] of the same compound?
A: 0.32%

Q: What about the Activity [11] of the same compound?
A: 2.22%

Q: What about the Activity [12] of the same compound?
A: 56.6%
